Test [1] in a line: Inhibition of Cryptosporidium parvum NMT.
A further test relates to Cryptosporidium parvum. Briefly: Antiparasitic activity against Cryptosporidium parvum assessed as inhibition of parasitic growth. The class given is functional, organism-based.
The nature of test [2]: Selectivity index, ratio of IC50 for human NMT1 to IC50 for Cryptosporidium parvum NMT.
The target of test [3] is T1, Glycylpeptide N-tetradecanoyltransferase 1 (Homo sapiens, UniProt P30419).
T1 sequence (P30419 whole entry): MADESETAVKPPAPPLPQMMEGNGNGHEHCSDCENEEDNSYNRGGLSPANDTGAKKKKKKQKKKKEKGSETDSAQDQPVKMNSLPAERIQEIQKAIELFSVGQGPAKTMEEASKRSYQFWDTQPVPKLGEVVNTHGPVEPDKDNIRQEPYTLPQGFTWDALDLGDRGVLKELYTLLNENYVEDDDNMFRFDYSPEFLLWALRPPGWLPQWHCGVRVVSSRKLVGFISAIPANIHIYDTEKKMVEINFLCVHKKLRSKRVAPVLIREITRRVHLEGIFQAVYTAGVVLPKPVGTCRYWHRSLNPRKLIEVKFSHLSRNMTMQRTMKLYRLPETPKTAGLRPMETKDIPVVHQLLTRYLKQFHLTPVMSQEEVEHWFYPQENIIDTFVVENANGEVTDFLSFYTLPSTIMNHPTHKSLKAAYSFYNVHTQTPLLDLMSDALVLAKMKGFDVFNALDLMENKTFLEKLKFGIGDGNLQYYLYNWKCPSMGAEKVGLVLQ
The experiment in a line: Inhibition of human NMT1.

Structures are written as SMILES.

The IC50 is the point on the concentration scale where inhibition reaches its midpoint. A high value points to a need for much substance. Usually EC50 stands for the concentration at which the effect is half-maximal.

With `CCN(c1ccccc1)S(=O)(=O)c1ccc(Cl)c(C(=O)Nc2ccccc2N2CCCC2=O)c1`, it took 3.5 µM to reach half-maximal inhibition in test [1] (IC50). Further, the EC50 in the test with Cryptosporidium parvum is 3.5 µM. In addition, in test [2], the Ratio IC50 stood at 1.4.
For `CCN(c1ccccc1)S(=O)(=O)c1ccc(Cl)c(C(=O)Nc2ccccc2N2CCN(C)C2=O)c1`, the IC50 worked out at 11.4 µM in test [3] and 2.5 µM in test [1]. The EC50 in the test on Cryptosporidium parvum stood at 6.9 µM. In test [2], the Ratio IC50 was determined as 4.6.
For `CCN1CCN(c2ccccc2NC(=O)c2cc(S(=O)(=O)N(CC)c3ccccc3)ccc2Cl)C1=O` the same measures were above 125 µM, 2.8 µM, 16.4 µM and above 44.
In test [1], `CCN(c1ccccc1)S(=O)(=O)c1ccc(Cl)c(C(=O)Nc2ccccc2N2CC(C)(C)CC2=O)c1` showed an IC50 above 125 µM. Besides, in the test with Cryptosporidium parvum, the concentration giving a half-maximal response (EC50) was above 20 µM.
As to `CCN(c1ccccc1)S(=O)(=O)c1ccc(Cl)c(C(=O)Nc2ccccc2N2CCC(C)(C)C2=O)c1`, the half-inhibitory concentration (IC50) in test [3] is above 125 µM; in test [1], 13.8 µM. Also, the concentration for a half-maximal effect (EC50) in the test with Cryptosporidium parvum is above 20 µM. For the same molecule, the Ratio IC50 in test [2] was above 9.
With `CCN(c1ccccc1)S(=O)(=O)c1ccc(Cl)c(C(=O)Nc2ccccc2N2CCN(CC3CC3)C2=O)c1`, the figures for the IC50 in test [3] and in test [1] were above 125 µM and 52.8 µM, respectively. Further, the EC50 with Cryptosporidium parvum is above 20 µM. Moreover, in test [2], the Ratio IC50 is above 2.
The molecule `CCN(c1ccccc1)S(=O)(=O)c1ccc(Cl)c(C(=O)Nc2ccccc2N2CCN(C(C)C)C2=O)c1` came in with an IC50 in test [1] above 125 µM. Further, the EC50 in the test on Cryptosporidium parvum is above 20 µM.
With `CCN(c1ccccc1)S(=O)(=O)c1ccc(Cl)c(C(=O)Nc2ccccc2N2C(=O)CC(C)(C)C2=O)c1`, the IC50 in test [1] was above 125 µM. In addition, the EC50 with Cryptosporidium parvum is above 20 µM.
`CCN(c1ccccc1)S(=O)(=O)c1ccc(Cl)c(C(=O)Nc2ccccc2N2CC(CC)(CC)CC2=O)c1` returned an IC50 in test [1] above 125 µM. The EC50 in the test with Cryptosporidium parvum is above 20 µM.

For the origin of these results see ChEMBL document CHEMBL6109051, “Structure guided modification of 2-chloro-5-(ethyl-phenyl-sulfamoyl)-N-[2-(2-oxo-pyrrolidin-1-yl)-phenyl]-benzamide to afford selective inhibitors of Cryptosporidium parvum N-myristoyltransferase” (Bioorg Med Chem Lett, 2025).
